Experimental data: patent US9839614B2, “Nanoparticle and polymer formulations for thyroid hormone analogs, antagonists, and formulations and uses thereof” (NANOPHARMACEUTICALS LLC, priority 2009, dated 2017)

Key:
[1] = target: TTR (Homo sapiens, UniProt P02766); settings: cited from earlier work
[2] = tested on: chick chorioallantoic membrane (CAM) blood vessel branching; assay: Chorioallantoic membrane (CAM) model of angiogenesis; assay type: in vivo
Method: In vivo neovascularization was examined by methods described previously. 9-12 Ten-day-old chick embryos were purchased from SPAFAS (Preston, Conn.) and incubated at 37° C. with 55% relative humidity. A hypodermic needle was used to make a small hole in the shell concealing the air sac, and a second hole was made on the broad side of the egg, directly over an avascular portion of the embryonic membrane that was identified by candling. A false air sac was created beneath the second hole by the application of negative pressure at the first hole, causing the CAM to separate from the shell. A window approximately 1.0 cm^2 was cut in the shell over the dropped CAM with a small-crafts grinding wheel (Dremel, division of Emerson Electric Co.), allowing direct access to the underlying CAM. […] Sterile disks of No. 1 filter paper (Whatman International) were pretreated with 3 mg/mL cortisone acetate and 1 mmol/L PTU and air dried under sterile conditions. Thyroid hormone, hormone analogs, FGF2 or control solvents, and inhibitors were then applied to the disks and the disks allowed to dry. The disks were then suspended in PBS and placed on growing CAMs. […] At 24 hours, the MAPK cascade inhibitor PD 98059 was also added to CAMs topically by means of the filter disks.
After incubation at 37° C. with 55% relative humidity for 3 days, the CAM tissue directly beneath each filter disk was resected from control and treated CAM samples. Tissues were washed 3× with PBS, placed in 35-mm Petri dishes (Nalge Nunc), and examined under an SV6 stereomicroscope (Zeiss) at X50 magnification. Digital images of CAM sections exposed to filters were collected using a 3-charge-coupled device color video camera system (Toshiba) and analyzed with Image-Pro software (Media Cybernetics). The number of vessel branch points contained in a circular region equal to the area of each filter disk were counted. One image was counted in each CAM preparation, and findings from 8 to 10 CAM preparations were analyzed for each treatment condition (thyroid hormone or analogs, FGF2, FGF2 antibody, PD 98059). In addition, each experiment was performed 3 times. The resulting angiogenesis index is the mean±SEM of new branch points.

[3] = tested on: human MTC cells gene expression; assay: RNA microarray analysis of h-MTC cells; assay type: cell-based
[4] = tested on: SKN-SH/R cells; assay: Senescence and apoptosis in drug resistant cells; assay type: cell-based; settings: 24 h
Method: In FIG. 16A, SKN-SH/R cells were subjected to treatment doxorubicin (Dox) alone, Tetrac alone, or the combination of both for 24 h. Expression of p21/WAF1, cleaved caspase-3 (Cl-Casp-3) and beta action were measured by Western blot using specific antibodies.
FIG. 16B discloses the cells were seeded in 24 well plates and treated as mentioned above and expression of the senescence associated beta galactosidase (SA-β-Gal.) was assayed as described in the methods section.
FIG. 16C discloses the cells were seeded on cover slips and treated with the drugs as above for 24 h, after which they were fixed and stained with Hoechst and the percentage of positive cells graphed. The data represent average of 3 determinations±SE.

[5] = tested on: P-gp, GST and SOD in MCF7/R cells; assay: Western blot of drug resistance genes; assay type: cell-based; settings: 24 h
Method: FIG. 15A is a Western blot showing the expression of P-gp, GST and SOD in wild type (W) drug sensitive and resistant (R) MCF7 cells.
The cells were treated for 24 h with each drug alone or the combination of both, after that, expression of drug resistance molecules was determined by Western blot using specific antibodies.

[6] = tested on: human medullary carcinoma of the thyroid (MTC) xenografts; settings: mouse, in vivo
Method: Human medullary carcinoma cells (TT, Catalog No. CRL-1803) were purchased from American Type Culture Collection (Manassas, Va.) and cultured as instructed by the supplier, using a complete growth medium consisting of F-12K medium with 10% FBS. Cells were cultured in 5% CO2/air atmosphere at 37 C to sub-confluence and then treated with 0.25% (w/v) trypsin/EDTA to affect cell release from the culture vessel. After washing with culture medium, the cells were suspended in DMEM (free of phenol red and FBS) and counted. • Tetrac versus tetrac NP distribution in h-MTC. […] Female NCr nude homozygous mice aged 5-6 weeks and body weights of 20 g were purchased form Taconic Farms (Hudson N.Y.). Animals were maintained under specific pathogen-free conditions and housed 4 animals per cage, under controlled conditions of temperature (20-24° C.) and humidity (60-70%) and a 12 h light/dark cycle. Water and food were provided ad libitum.

[7] = tested on: MDA-MB-231 cells gene expression; assay: RNA microarray of MDA-MB-231 cells (Example 17); assay type: cell-based, human; settings: 24 h
Method: Expression of ˜54,000 transcripts was analyzed in control and drug-treated cultures, using Affymetrix Human Genome U133 plus 2.0 microarrays. Subsequent analysis was focused on genes affected by treatment at p<0.01. There was 93% concordance between Tetrac and Tetrac NP in terms of genes affected; notable disparities included downregulation of epidermal growth factor receptor (EGFR) by Tetrac NP and no affect of unmodified Tetrac on this gene.

[8] = Solubility; assay type: physicochemical
Method: Yield: 50%; off-white solid; recrist. solvent.: EtOH; TLC: Rf=0.43 (EtOAc/EtOH 9/1); RPTLC: Rf=0.43 (AcOH/H2O 8/2); mp=136° C.; IR (υ cm^−1): 1730 (CO); ^1H NMR (DMSO-d 6) δ (ppm): 7.79 (s, 2H, ArH), 7.14 (s, 2H, ArH), 4.06-4.02 (m, 2H, CH2), 3.93-3.89 (q, J=7.0 Hz, 2H, CH2), 3.59-3.56 (t, J=7.0 Hz, 1H, CH), 2.80-2.77 (m, 2H, CH2), 1.88 (br, 1H, NH), 1.41-1.39 (t, J=7.0 Hz, 3H, CH3), 1.15-1.12 (t, J=7.0 Hz, 3H, CH3); MS (ESI+) m/z 911.7[(M+DMSO)^+, 100], 833.7 [(M+H)+, 75]; Anal. Calcd. for C19H19I4NO4: C, 27.40; H, 2.30; N, 1.68. Found: C, 27.54; H, 1.94; N, 1.66. Solubility 10^−3M in water after preparing a solution at 10^−1M in DMSO.
When looking at the amorphous state, the solid was not stable and quickly returned to the crystal state. Thus, Tetrac was used as a salt with Na^+ as the counterion which reduced the use of DMSO to 10%. Then all analogs were solubilized with 10% DMSO in water for the TiPS protected analogs and in PBS for the others.

O=C(O)Cc1cc(I)c(Oc2cc(I)c(O)c(I)c2)c(I)c1 [Tetrac, tetraiodothyroacetic acid]
affinity of TTR for Tetrac relative to that for T4 [1]: 100 times | Mean % Inhibition ([2]; FGF (1.25 μg/ml) + Tetrac or analog at 10 μg/plug): 85% | effect on action of T4 on angiogenesis ([2]; Tetrac 0.1 μmol/L with T4): inhibited the action of T4 | effect of Tetrac alone on angiogenesis ([2]; Tetrac alone): no effect on angiogenesis | effect on action of T4-agarose on angiogenesis ([2]; Tetrac with T4-agarose 0.1 μmol/L): inhibited | VEGFA expression [3]: significantly decreased expression | expression of apoptosis genes (CASP2, DFFA, FAF1, CASP8AP2) [3]: caused expression of genes associated with induction of apoptosis | thrombospondin (THBS1) gene expression [3]: concomitant increase | doxorubicin-induced proliferation arrest, SA-β-Gal and cell death [4]: dramatically enhanced | expression of P-glycoprotein, SOD, and GST-π [5]: none of these genes was significantly altered | mortality [6]: no mortality | Change: CDKN2C ([7]; 10^−7M (Tetrac equivalent), hormone-stripped serum): ↑ | Change: BCL2L14 ([7]; 10^−7M): ↑ | Change: CASP2 ([7]; 10^−7M): ↑ | Change: CBY1 ([7]; 10^−7M): ↑ | Change: CTNNA1 ([7]; 10^−7M): ↓ | Change: CTNNA2 ([7]; 10^−7M): ↓ | Change: CTSL1 ([7]; 10^−7M): ↓ | Change: CXCL10 ([7]; 10^−7M): ↑ | Change: Cyclins ([7]; 10^−7M): ↓ | Change: EDN1 ([7]; 10^−7M): ↑ | Change: Interleukins ([7]; 10^−7M): ↓ | Change: MCL1 ([7]; 10^−7M): ↓ | Change: NR1D1 ([7]; 10^−7M): ↓ | Change: THBS1 ([7]; 10^−7M): ↑ | Change: XIAP ([7]; 10^−7M): ↓ | epidermal growth factor receptor (EGFR) expression ([7]; 10^−7M): no affect | solubility in water [8]: difficult to solubilize in water
